Assay results taken from patent publication US20230063321A1, “Methods for Treating Inflammatory Bowel Diseases with alpha4beta7 Integrin Antagonists” (Protagonist Therapeutics, Inc., priority 2020, published 2023).
≈ marks a conversion by molar mass, not a printed value. Entries after “also recorded” stand apart in the source; their conditions may differ. Where two headings read alike, the source gives them in different places. Numbered stars: 1 amine (or outer) side, 2 acyl side, 3 side chain; on linkers, the order of the positions; unused ones are H or OH. Bridge positions count the residues as written; N and C are the ends. Square brackets hold non-standard residues; d marks the D form. Peptide text beside a SMILES is read from it. I, II: the chains in the order shown. ξ: configuration not given here. Phe(4-tBu) = CC(C)(C)c1ccc(C[C@H](N)C(=O)O)cc1; Diglycolyl = O=C(COCC(=O)[*:2])[*:1]; NMeR = CN[C@@H](CCCNC(=N)N)C(=O)O; β3hE = N[C@@H](CCC(=O)O)CC(=O)O; Thr(3ξ) = CC(O)[C@H](N)C(=O)O; X1 = O=C(c1ccccc1C[*:2])[*:1]; Pen = CC(C)(S)[C@H](N)C(=O)O

What was measured:
[1] = Plasma and tissue exposure after single PO administration; format: in vivo, C57BL/6 female mice; settings: single PO 30 mg/kg
Procedure: Twelve treatment-naïve C57BL/6 female mice were assigned to the study. […] At 1, 3, and 6 hours (h) post-dose, 4 mice/time point were subjected to terminal bleeds and euthanized; Peyer's patches (PPs), mesenteric lymph nodes (MLNs), small intestine, and colon were collected from each animal. The blood was processed to plasma; plasma and the tissue samples were submitted for pharmacokinetic (PK) analysis of Compound A levels using a qualified liquid chromatography tandem mass spectrometry (LC-MS/MS) method.
Processed plasma and tissue samples were analyzed on an AB/MDS Sciex API 4000 mass spectrometer. Positive ions were monitored in the multiple reaction-monitoring (MRM) mode. Quantitation was by peak area ratio.
PK data analysis was carried out using non-compartmental analysis (NCA) in Phoenix WinNonlin 8.1 (Certara USA Inc.). All concentration values below the lower limit of quantitation were treated as zero for the pharmacokinetic analysis. The maximum concentration (Cmax) and the apparent time to Cmax (tmax) were obtained by observation. The area under the concentration versus time curve (AUC) was obtained by the linear trapezoidal method. All concentration data and PK parameters were reported at up to three significant figures if the value was greater than one, and at up to three decimal places if the value was less than one. Time parameters were reported at up to two decimal places. The concentration data were plotted using Excel (Microsoft).

[2] = test system: integrin β7, integrin α4 and CCR9 on cultured CD3+ cells; assay: Gut homing receptor expression on T cells cultured with ATRA; format: cell-based, B6.SJL mice; settings: 100 and 1000 nM in culture
Procedure: Purified CD3+ cells were isolated from B6.SJL (CD45.1+) donor mice and cultured in the presence of anti-CD3/anti-CD28 beads and IL-2 to induce T cell activation and proliferation. In some culture conditions, Compound A and/or ATRA were added. To track the cells in vivo, ATRA− and ATRA+ cells were labeled with CMFDA and CTFR respectively. These labeled cells were then co-injected into C57BL/6 (CD45.2+) recipient mice.
Eighteen (18) B6.SJL (CD45.1+) donor mice were acclimated for 3 to 9 weeks before the start of the study and were 11 to 16 weeks old at culture setup (Day 0). On Day 0, spleen and lymph node cells were isolated from donor mice and pooled. CD3+ cells were enriched using […] Technologies kit catalog number 19851. Purity of enriched cells was confirmed by flow cytometry.
Approximately 44% of the cells were then cultured at 1.5×10^6/mL in the presence of anti-CD3/CD28 beads (Dynabeads, ThermoFisher 11453D), with a 1:1 cell to bead ratio (ATRA−, per Table 4 below). […] All-trans retinoic acid (ATRA) was then added to these cultures at a concentration of 0.1 μM.
On Day, 1 IL-2 was added to all cultures to reach a concentration of 30 U/mL.

[3] = molecular target: T1, α4β7 receptor occupancy (Homo sapiens, UniProt P13612+P26010); assay: Plasma concentration-receptor occupancy relationship, sigmoid Emax (Hill) model; settings: in vivo
T1 construct: the amount of α4β7 expression on the cell surface of circulating lymphocytes; endogenous in cells; host or cells: heparinized whole blood of healthy volunteers
T1 sequence (P13612 34-1032): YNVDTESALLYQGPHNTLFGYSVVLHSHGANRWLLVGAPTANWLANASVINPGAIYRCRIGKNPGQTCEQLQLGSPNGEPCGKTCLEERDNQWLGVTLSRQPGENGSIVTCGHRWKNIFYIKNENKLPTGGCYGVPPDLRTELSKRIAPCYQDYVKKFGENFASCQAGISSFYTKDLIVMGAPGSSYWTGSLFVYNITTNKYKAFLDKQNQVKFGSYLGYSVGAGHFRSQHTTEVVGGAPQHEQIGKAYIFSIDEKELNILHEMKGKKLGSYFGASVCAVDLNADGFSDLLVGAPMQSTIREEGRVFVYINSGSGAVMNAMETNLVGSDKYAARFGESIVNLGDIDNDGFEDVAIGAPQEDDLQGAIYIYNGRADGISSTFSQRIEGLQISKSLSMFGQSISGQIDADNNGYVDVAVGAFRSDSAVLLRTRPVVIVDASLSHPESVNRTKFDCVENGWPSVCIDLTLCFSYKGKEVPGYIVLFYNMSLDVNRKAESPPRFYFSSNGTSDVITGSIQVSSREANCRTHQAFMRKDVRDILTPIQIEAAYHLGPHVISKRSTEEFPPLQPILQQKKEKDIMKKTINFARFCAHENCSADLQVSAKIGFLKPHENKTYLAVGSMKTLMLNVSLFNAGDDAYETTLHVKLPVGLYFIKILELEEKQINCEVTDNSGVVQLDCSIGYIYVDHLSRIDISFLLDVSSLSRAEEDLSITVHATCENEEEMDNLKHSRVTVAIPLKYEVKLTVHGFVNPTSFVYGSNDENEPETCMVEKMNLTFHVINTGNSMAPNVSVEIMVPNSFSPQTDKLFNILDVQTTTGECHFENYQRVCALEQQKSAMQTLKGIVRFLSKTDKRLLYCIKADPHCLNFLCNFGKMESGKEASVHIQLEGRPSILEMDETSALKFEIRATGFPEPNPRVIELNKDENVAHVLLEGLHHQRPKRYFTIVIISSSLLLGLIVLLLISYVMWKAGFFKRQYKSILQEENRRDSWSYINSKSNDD
T1 sequence (P26010 20-798): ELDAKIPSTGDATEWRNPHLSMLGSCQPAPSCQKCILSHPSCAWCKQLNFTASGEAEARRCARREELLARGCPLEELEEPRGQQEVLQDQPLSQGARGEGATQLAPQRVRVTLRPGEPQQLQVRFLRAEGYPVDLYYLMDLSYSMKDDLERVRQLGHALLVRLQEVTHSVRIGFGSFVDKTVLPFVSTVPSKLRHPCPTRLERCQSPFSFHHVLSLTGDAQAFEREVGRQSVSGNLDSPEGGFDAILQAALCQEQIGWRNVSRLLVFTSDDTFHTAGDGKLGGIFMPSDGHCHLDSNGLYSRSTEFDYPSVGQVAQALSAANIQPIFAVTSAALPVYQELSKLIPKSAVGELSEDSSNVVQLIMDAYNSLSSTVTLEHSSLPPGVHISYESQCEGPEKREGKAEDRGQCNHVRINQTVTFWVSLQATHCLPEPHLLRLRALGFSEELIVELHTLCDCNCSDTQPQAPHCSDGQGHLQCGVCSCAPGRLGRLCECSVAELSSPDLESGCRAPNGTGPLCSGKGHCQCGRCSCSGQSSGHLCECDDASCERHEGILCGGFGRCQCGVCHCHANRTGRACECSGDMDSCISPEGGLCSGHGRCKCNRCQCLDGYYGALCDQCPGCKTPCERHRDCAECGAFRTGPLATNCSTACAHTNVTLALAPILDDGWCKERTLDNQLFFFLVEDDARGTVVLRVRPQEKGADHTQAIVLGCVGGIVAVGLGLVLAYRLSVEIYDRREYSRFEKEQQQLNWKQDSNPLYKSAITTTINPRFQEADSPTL

[4] = Oral bioavailability in cynomolgus monkeys; settings: cynomolgus monkey, in vivo
[5] = Systemic absorption in animal studies; format: in vivo; settings: oral
[6] = 28-day toxicology studies (NOEL); format: in vivo, rats and cynomolgus monkeys; settings: standard allometric scaling and 10-fold safety margin
Procedure: The starting dose in the first in human single and multiple dose study was based on consideration of the no observed effect level (NOEL) from 28-day toxicology studies in rats and cynomolgus monkeys, and the receptor occupancy noted in cynomolgus monkeys. The NOEL determined in rats and monkeys translated to a human equivalent dose of approximately 145 mg using standard allometric scaling and a 10-fold safety margin. A starting dose of 100 mg was selected with initial stepwise escalations of approximately 3-fold.

[7] = Safety and tolerability in healthy volunteers; settings: for tolerability: single and multiple oral doses

CC(C)C[C@@H]1NC(=O)[C@H](C(C)O)NC(=O)[C@H](CC(=O)O)NC(=O)[C@H](CO)NC(=O)[C@H](CCCNC(=N)N)N(C)C(=O)c2ccccc2CSC(C)(C)[C@@H](C(=O)N[C@@H](Cc2ccc(C(C)(C)C)cc2)C(=O)N[C@@H](CCC(=O)O)CC(=O)N[C@H](CCCCNC(=O)COCC(=O)NCCCC[C@@H](NC(=O)C[C@H](CCC(=O)O)NC(=O)[C@H](Cc2ccc(C(C)(C)C)cc2)NC(=O)[C@H]2NC(=O)[C@H](CC(C)C)NC(=O)[C@H](C(C)O)NC(=O)[C@H](CC(=O)O)NC(=O)[C@H](CO)NC(=O)[C@H](CCCNC(=N)N)N(C)C(=O)c3ccccc3CSC2(C)C)C(=O)O)C(=O)O)NC1=O (stereo partly drawn) [Compound A, ((2-Benzyl)-(N-Me-R)-Ser-Asp-Thr-Leu-Pen-(Phe(4-tBlu))-(β-homo-Glu)-(D-Lys)-OH)2 (SEQ ID NO: 5) and linker-DIG diglycolic acid] (I: [NMeR]SD[Thr(3ξ)]L[Pen][Phe(4-tBu)][β3hE][dK]-OH / II: [NMeR]SD[Thr(3ξ)]L[Pen][Phe(4-tBu)][β3hE][dK]-OH; linker I:9-II:9 via Diglycolyl; linker I:N-I:6, II:N-II:6 via X1)
Cmax ([1]; female, C57BL/6, mouse, mesenteric lymph nodes, read-out: mean Cmax, MLNs): 56.8 ng/g
AUC ([1]; female, C57BL/6, mouse, plasma): 95.4 ng·h/mL
Cmax ([1]; female, C57BL/6, mouse, plasma, read-out: mean Cmax, plasma): 19 ng/mL
Cmax ([1]; female, C57BL/6, mouse, small intestine, read-out: mean Cmax, small intestine): 13300 ng/g
mean AUC, MLNs [1]: 226 ng·h/g
mean AUC, PPs [1]: 37900 ng·h/g
mean AUC, colon [1]: 15700 ng·h/g
mean AUC, small intestine [1]: 48600 ng·h/g
mean Cmax in PPs and colon relative to small intestine [1]: approximately two-fold lower
time of peak exposure, MLNs [1]: 1 h
time of peak exposure, PPs [1]: 1 h
time of peak exposure, colon [1]: 6 h
time of peak exposure, plasma [1]: 3 h
time of peak exposure, small intestine [1]: 1 h
expression of CCR9, ATRA+/Compound A vs ATRA+/DMSO cultures [2]: did not appear to be affected
expression of integrin α4, ATRA+/Compound A vs ATRA+/DMSO cultures [2]: lower
proportion of integrin β7+ cells, ATRA+/Compound A vs ATRA+/DMSO cultures [2]: lower proportion; also recorded: smaller proportion
IC50 ([3]; read-out: estimated IC50 for receptor occupancy (converted)): 0.251 nM
IC80 ([3]; read-out: estimated IC80 for receptor occupancy): 5.9 ng/mL (≈ 2.14 nM)
bioavailability [4]: < 1%
systemic absorption [5]: < 1%
human equivalent dose of the NOEL [6]: approximately 145 mg
maximally tolerated dose, multiple dose (highest dose tested) ([7]; healthy volunteers): 1000 mg
maximally tolerated dose, single dose (highest dose tested) ([7]; healthy volunteers): 1400 mg
subjects reporting AEs ([7]; multiple doses): Thirty
total AEs ([7]; multiple doses): 68 AEs
QTc prolongation ([7]; single and multiple doses): no evidence of QTc prolongation was observed
tolerability [7]: generally well tolerated
tolerability ([7]; listed as COMPOUND A): safe and well tolerated
TEAEs in subjects who received drug ([7]; single ascending dose phase): 21 events
subjects with TEAEs who received drug ([7]; single ascending dose phase): 12 subjects
dose-limiting toxicities ([7]; single doses up to 1400 mg, multiple up to 1000 mg): no dose-limiting toxicities observed
